# How the values were obtained:
# C6 cells = assay: Wound healing assay, C6; assay type: cell-based, rat
# Procedure: The wound healing assay or scratch test was performed as previously reported. Briefly, 6 × 10^3 U87-MG cells were seeded in multiwell-12 plates containing culture inserts for live cell analysis (Ibidi, Gmbh, Martinsried, Germany) and grown to confluence in DMEM/10% FBS for 24 h. After removing the inserts, the cells were pre-treated for 40 min at 37 °C with uPAcyclin or diluents at the indicated concentrations, and then incubated in DMEM/3% FBS for 24 h. The images were taken using the Inverted Microscope Leica DMI6000 DFC 402 (Leica Microsystems, Milan, Italy). A total of 10 × 10^4 C6 cells were grown to confluence in 12-well plates, in the presence of DMEM/10% FBS. […] To quantitate cell migration, a rectangle covering the wound edges is drawn on the T0 image and is further applied to the single photograms of each sample. The average margin distance is measured at three points and the results are expressed as percentage wound width of the T0 distance, taken as 100%.
# Figure 5 Wound healing assay of U87-MG and C6 cells, in the presence of uPAcyclin. […] (C) For both U87-MG and C6, the wound width at time 0 is taken as 100% and the wound width at T24 or T16 is calculated as relative to that (* p-value < 0.05; ** p-value < 0.005; *** p-value < 0.001).
# U87-MG cells = assay: Wound healing assay, U87-MG; assay type: cell-based, human; conditions: for residual space, % of the initial wound: 24 h (untreated 15%)
# Procedure: The wound healing assay or scratch test was performed as previously reported. Briefly, 6 × 10^3 U87-MG cells were seeded in multiwell-12 plates containing culture inserts for live cell analysis (Ibidi, Gmbh, Martinsried, Germany) and grown to confluence in DMEM/10% FBS for 24 h. After removing the inserts, the cells were pre-treated for 40 min at 37 °C with uPAcyclin or diluents at the indicated concentrations, and then incubated in DMEM/3% FBS for 24 h. The images were taken using the Inverted Microscope Leica DMI6000 DFC 402 (Leica Microsystems, Milan, Italy). A total of 10 × 10^4 C6 cells were grown to confluence in 12-well plates, in the presence of DMEM/10% FBS. Then, the cell monolayers were wounded with a yellow tip, pre-incubated with uPAcyclin (10 pM and 100 nM) or diluents, and incubated in DMEM/2.5% FBS for 16 h. The images were obtained using the Inverted Axiovert 25 Microscope, equipped with the Zen 3.3 Software. To quantitate cell migration, a rectangle covering the wound edges is drawn on the T0 image and is further applied to the single photograms of each sample. The average margin distance is measured at three points and the results are expressed as percentage wound width of the T0 distance, taken as 100%.
# Figure 5 Wound healing assay of U87-MG and C6 cells, in the presence of uPAcyclin. (A) U87-MG cells were grown to confluence in multiwell-12 plates with inserts, pre-incubated with uPAcyclin (10 pM or 100 nM) or diluents for 40 min at 37 °C, and then exposed to 3% FBS, in the presence of uPAcyclin or diluents, as reported. Images were taken at time 0 (T0) and 24 h (T24) and representative images are shown (50× total magnification, scale bar: 250 µm). […] (C) For both U87-MG and C6, the wound width at time 0 is taken as 100% and the wound width at T24 or T16 is calculated as relative to that (* p-value < 0.05; ** p-value < 0.005; *** p-value < 0.001).
# VE-cadherin = VE-cadherin expression in matrix-recovered U251-MG cells (Western blot); assay type: cell-based, human; conditions: 1 µM uPAcyclin, VM-forming U251-MG, 24 h
# Description: Whole cells were lysed as described, and resolved by SDS-PAGE, followed by Western blotting with PVDF membranes (Millipore, Burlington, MA, USA). The filters were probed with the following antibodies: polyclonal anti-VE Cadherin (Bioss Antibodies, Woburn, MA, USA), polyclonal anti-αV (Millipore), polyclonal anti-GAPDH (Elabscience, Houston, TX, USA), and polyclonal anti-actin (Sigma-Aldrich, St. Louis, MO, USA). Then, goat anti-rabbit IgG-HRP (Sigma) or goat anti-mouse IgG-HRP (Santa Cruz Biotechnology, Dallas, TX, USA) were employed as secondary antibodies. […] Films were imaged using the CanoScan 4400F (Canon, Tokyo, Japan) at 300 dpi, with the Adobe Photoshop Creative Suite 2 or CS2, and bands were quantified with the ImageJ 1.52a software (NIH, Bethesda, MD, USA).
# To analyze matrix-embedded U251-MG cells, cells undergoing VM for 24 h were extracted using a 2× mixture of Trypsin, Accutase, and Dispase (1:1:1), acting for 45 min at 37 °C. […] The supernatants were collected and the protein concentration was quantified using the Bradford assay (Biorad, Hercules, CA, USA).
# Figure 8 Vascular mimicry formation and VE-cadherin expression inhibited by uPAcyclin in U251-MG cells. […] (B) The quantitation of the branching point number is described in the legend to Figure 6B. […] The densitometric quantitation of VE-cadherin bands is shown (right panel) (* p-value < 0.05; *** p-value < 0.001).
substance,measurement,setting,value
Ac-K^1P[ESPPEELK^10]-NH2 (sidechain bridge or staple) [uPAcyclin],"wound closure, in words","C6 cells; 10 pM or 100 nM, C6, 16 h",dose-dependent inhibition of wound closure
same,reduction of wound healing rate closure,"C6 cells; C6, abstract",50%
same,"residual space, % of the initial wound",U87-MG cells; 10 pM,30%
same,"residual space, % of the initial wound",U87-MG cells; 100 nM,60%
same,reduction of wound healing rate closure,U87-MG cells; abstract,50%
same,VE-cadherin expression,VE-cadherin,markedly reduced

# From article PMC10571957, “αV-Integrin-Dependent Inhibition of Glioblastoma Cell Migration, Invasion and Vasculogenic Mimicry by the uPAcyclin Decapeptide” (Cancers, 2023)
